Assay results published in EPA's ToxRefDB 2.

Assays:
rat [1] = conditions: Peri- and post-natal toxicity study (Segment III), sprague dawley, Oral, Gavage/Intubation, dose end: 54 PND
rat [2] = conditions: Multigenerational reproductive toxicity study, wistar, Oral, Feed, dose end: 2 generation
rat [3] = conditions: Carcinogenicity, wistar, Oral, Feed, dose end: 24 month, group: systemic
rat [4] = conditions: Subchronic oral toxicity in rodents, wistar, [Not Specified], dose end: 3 month, group: systemic
dog [5] = conditions: Chronic toxicity, beagle, Oral, Feed, dose end: 52 week, group: systemic
mouse [6] = conditions: Subchronic oral toxicity in rodents, other, Feed, dose end: 90 day, group: systemic, systemic / clinical chemistry / cholesterol / cholesterol + systemic / clinical chemistry / triglycerides / triglycerides + systemic / organ…
dog [7] = conditions: Subchronic oral toxicity in nonrodent, beagle, Gavage/Intubation, dose end: 91 day, group: systemic, systemic / pathology microscopic / brain / necrosis
rat [8] = conditions: Sub-acute repeat dose toxicity, Oral, Gavage/Intubation, dose end: 36 day
mouse [9] = conditions: Sub-acute repeat dose toxicity, Oral, Gavage/Intubation, dose end: 14 day, group: systemic
dog [10] = conditions: Sub-acute repeat dose toxicity; beagle; Oral; Gavage/Intubation; dose end: 14 day; group: systemic; systemic / clinical chemistry / [other] / [other] + systemic / clinical chemistry / cytochrome p450, nos / cytochrome p450, nos + systemic…
primate = conditions: Sub-acute repeat dose toxicity, Oral, Gavage/Intubation, dose end: 14 day, group: systemic
rat [11] = conditions: Subchronic oral toxicity in rodents, Gavage/Intubation, dose end: 91 day, group: systemic
mouse [12] = conditions: Subchronic oral toxicity in rodents, Gavage/Intubation, dose end: 91 day, group: systemic
dog [13] = conditions: Subchronic oral toxicity in nonrodent, beagle, Gavage/Intubation, dose end: 91 day, group: systemic, systemic / in life observation / clinical signs / emesis + systemic / organ weight / liver / absolute + systemic / pathology microscopic / …
rat [14] = conditions: Peri- and post-natal toxicity study (Segment III), Oral, Gavage/Intubation, dose end: 1 generation
[15] = group: developmental, developmental / developmental landmark / preputial separation / preputial separation
[16] = group: parental, systemic / organ weight / [other] / absolute + systemic / organ weight / adrenal gland / absolute + systemic / organ weight / prostate / …
[17] = group: parental, systemic / pathology gross / kidney / dilatation
[18] = group: offspring, systemic / organ weight / liver / absolute
[19] = group: parental, systemic / organ weight / epididymis / absolute + systemic / organ weight / adrenal gland / absolute
[20] = systemic / pathology microscopic / liver / eosinophilic focus + systemic / pathology microscopic / lung / foam cell aggregation
[21] = systemic / pathology microscopic / liver / eosinophilic focus + systemic / pathology microscopic / lung / foam cell aggregation + systemic…
[22] = systemic / organ weight / kidney / nos + systemic / organ weight / prostate / nos + systemic / organ weight / adrenal gland / nos + systemic…
[23] = systemic / organ weight / prostate / nos + systemic / organ weight / adrenal gland / nos + systemic / organ weight / epididymis / nos + …
[24] = systemic / hematology / reticulocyte / reticulocyte + systemic / organ weight / adrenal gland / absolute + systemic / organ weight / adrenal…
[25] = group: maternal, reproductive / offspring survival early / dead fetuses / dead fetuses + reproductive / offspring survival early / litter viability other / …
[26] = group: maternal, reproductive / offspring survival early / dead fetuses / dead fetuses + reproductive / reproductive performance / gestational length / …
[27] = group: systemic, systemic / in life observation / body weight / body weight gain + systemic / in life observation / body weight / offspring (pup) weight + …
[28] = group: systemic, systemic / in life observation / clinical signs / [other] + systemic / in life observation / clinical signs / body cold to touch + systemic…
[29] = systemic / clinical chemistry / [other] / [other] + systemic / clinical chemistry / cytochrome p450, nos / cytochrome p450, nos + systemic…
[30] = systemic / hematology / erythrocyte (rbc) count differential / erythrocyte (rbc) + systemic / hematology / hematocrit (hct) / hematocrit (…
[31] = systemic / in life observation / body weight / body weight + systemic / in life observation / clinical signs / [other] + systemic / in life …
[32] = systemic / in life observation / food consumption / food consumption + systemic / pathology microscopic / kidney / dilatation + systemic / …
[33] = systemic / clinical chemistry / [other] / [other] + systemic / hematology / leukocyte (wbc) count differential / leukocyte (wbc) + systemic…
[34] = group: maternal, reproductive / offspring survival early / dead fetuses / dead fetuses + reproductive / reproductive performance / dystocia / dystocia + …
[35] = group: maternal, reproductive / offspring survival early / litter size / litter size
[36] = group: parental, systemic / in life observation / clinical signs / body cold to touch + systemic / in life observation / clinical signs / cannibalism + …
[37] = group: parental, systemic / in life observation / clinical signs / body cold to touch + systemic / in life observation / clinical signs / dehydration + …

C=CC1(C)OC(=O)N(c2cc(Cl)cc(Cl)c2)C1=O (configuration not stated) [Vinclozolin]
LEL (rat [1]; [15]): 10 mg/kg/day | LOAEL (rat [1]; [15]): > 100 mg/kg/day | NEL (rat [1]; [15]): < 10 mg/kg/day | NOAEL (rat [1]; [15]): ≥ 100 mg/kg/day | LOAEL (rat [1]; [16]): > 100 mg/kg/day | NOAEL (rat [1]; [16]): ≥ 100 mg/kg/day | LEL (rat [1]; [17]): 10 mg/kg/day | NEL (rat [1]; [17]): < 10 mg/kg/day | LEL (rat [2]; [18]): 4.1 mg/kg/day | LOAEL (rat [2]; [18]): > 4.1 mg/kg/day | NEL (rat [2]; [18]): 2 mg/kg/day | NOAEL (rat [2]; [18]): ≥ 4.1 mg/kg/day | LEL (rat [2]; [19]): 2 mg/kg/day | LOAEL (rat [2]; [19]): > 4.1 mg/kg/day | NEL (rat [2]; [19]): < 2 mg/kg/day | NOAEL (rat [2]; [19]): ≥ 4.1 mg/kg/day | LOAEL (rat [3]; [20]): 2.3 mg/kg/day | NOAEL (rat [3]; [20]): < 2.3 mg/kg/day | LEL (rat [3]; [21]): 2.3 mg/kg/day | NEL (rat [3]; [21]): < 2.3 mg/kg/day | LOAEL (rat [4]; [22]): > 225 mg/kg/day | NOAEL (rat [4]; [22]): ≥ 225 mg/kg/day | LEL (rat [4]; [23]): 50 mg/kg/day | NEL (rat [4]; [23]): < 50 mg/kg/day | LOAEL (dog [5]; [24]): 47 mg/kg/day | NEL (dog [5]; [24]): 2.4 mg/kg/day | NOAEL (dog [5]; [24]): 4.8 mg/kg/day | LEL (dog [5]; systemic / organ weight / adrenal gland / absolute + systemic / organ weight / adrenal gland / relative to body weight + systemic / clinical…): 4.8 mg/kg/day | LEL (mouse [6]): 230 mg/kg/day | LOAEL (mouse [6]): 230 mg/kg/day | NEL (mouse [6]): 20 mg/kg/day | NOAEL (mouse [6]): 20 mg/kg/day

CC(C)(C)c1cc(/C=C2\SC(N)=NC2=O)cc(C(C)(C)C)c1O.CS(=O)(=O)O [Darbufelone mesylate]
LEL (dog [7]): 2 mg/kg/day | NEL (dog [7]): < 2 mg/kg/day | LOAEL (rat [8]; [25]): > 25 mg/kg/day | NOAEL (rat [8]; [25]): ≥ 25 mg/kg/day | LEL (rat [8]; [26]): 5 mg/kg/day | NEL (rat [8]; [26]): < 5 mg/kg/day | LOAEL (rat [8]; [27]): > 25 mg/kg/day | NOAEL (rat [8]; [27]): ≥ 25 mg/kg/day | LEL (rat [8]; [28]): 5 mg/kg/day | NEL (rat [8]; [28]): < 5 mg/kg/day | LOAEL (mouse [9]; [29]): > 800 mg/kg/day | NOAEL (mouse [9]; [29]): ≥ 800 mg/kg/day | NEL (mouse [9]; systemic / organ weight / liver / absolute): < 35 mg/kg/day | LEL (dog [10]): 2 mg/kg/day | LOAEL (dog [10]): > 5 mg/kg/day | NEL (dog [10]): < 2 mg/kg/day | NOAEL (dog [10]): ≥ 5 mg/kg/day | LOAEL (primate; [30]): > 1000 mg/kg/day | NOAEL (primate; [30]): ≥ 1000 mg/kg/day | LEL (primate; [31]): 100 mg/kg/day | NEL (primate; [31]): < 100 mg/kg/day | LOAEL (rat [11]; [29]): > 75 mg/kg/day | NOAEL (rat [11]; [29]): ≥ 75 mg/kg/day | LEL (rat [11]; [32]): 10 mg/kg/day | NEL (rat [11]; [32]): < 10 mg/kg/day | LOAEL (mouse [12]; [33]): > 300 mg/kg/day | NOAEL (mouse [12]; [33]): ≥ 300 mg/kg/day | NEL (mouse [12]; systemic / clinical chemistry / protein / protein): < 35 mg/kg/day | LEL (dog [13]): 2 mg/kg/day | LOAEL (dog [13]): > 10 mg/kg/day | NEL (dog [13]): < 2 mg/kg/day | NOAEL (dog [13]): ≥ 10 mg/kg/day | LEL (rat [14]; [34]): 1 mg/kg/day | NEL (rat [14]; [34]): < 1 mg/kg/day | LOAEL (rat [14]; [35]): > 2 mg/kg/day | NOAEL (rat [14]; [35]): ≥ 2 mg/kg/day | LEL (rat [14]; [36]): 1 mg/kg/day | NEL (rat [14]; [36]): < 1 mg/kg/day | LOAEL (rat [14]; [37]): > 2 mg/kg/day | NOAEL (rat [14]; [37]): ≥ 2 mg/kg/day
